Among the test systems are SN12C renal; HOP-62 NSCLC; TK-10 renal; KM12 colon; EKVX NSCLC; HT29 colon; K-562 leukemia; UACC-62 melanoma; RPMI-8226 leukemia; SK-OV-3 ovarian.
Holding throughout (test): NCI-60 cell line screen, 48 h

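These data come from cells grown in 96-well plates and exposed to compound for 48 hours at five concentrations. GI50 is the concentration that inhibits growth by half. TGI: concentration producing complete growth inhibition.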

Consider `Cc1cc(C)nc(NS(=O)(=O)c2ccc(Nc3c4ccccc4nc4c(C(=O)NCCN(C)C)ccc(Cl)c34)cc2)n1`, for which the TGI is 8.2 µM in the assay with SN12C renal; 10.2 µM with HOP-62 NSCLC; 20.3 µM in the assay with TK-10 renal; 12.5 µM with KM12 colon; 15.5 µM in the assay with EKVX NSCLC; 4.8 µM in the assay on HT29 colon. The TGI in the assay with K-562 leukemia is 11.7 µM; with UACC-62 melanoma it was 3.59 µM.

As for `C/C=C/C=N/N(c1nnc(-c2ccccc2)c(-c2ccccc2)n1)S(=O)(=O)c1ccc(C)cc1`, the TGI with RPMI-8226 leukemia was 36.6 µM; in the assay on SN12C renal, 20.7 µM; in the assay with TK-10 renal, 28.2 µM; in the assay on KM12 colon, 22.9 µM; in the assay with EKVX NSCLC it was 31.9 µM; in the assay on SK-OV-3 ovarian, 33.8 µM. The TGI is 24.1 µM with HT29 colon, more than 100 µM in the assay on K-562 leukemia and 11.6 µM in the assay on UACC-62 melanoma.

As for `Fc1ccc(-c2nc(-c3nc4ccc(Cl)cc4[nH]3)cc3c2[nH]c2ccccc23)cc1`, the GI50 in the assay on RPMI-8226 leukemia is 1.84 µM; in the assay on SN12C renal it was 3.04 µM; in the assay on HOP-62 NSCLC, 3.87 µM; in the assay on TK-10 renal, 3.35 µM; with KM12 colon, 3.46 µM; in the assay on SK-OV-3 ovarian, 7.43 µM. Besides, the GI50 was 4.31 µM in the assay on HT29 colon, 3.32 µM in the assay with K-562 leukemia and 2.28 µM with UACC-62 melanoma. Besides, the TGI was found to be 6.58 µM with RPMI-8226 leukemia; 24.4 µM with SN12C renal; 16.5 µM with HOP-62 NSCLC; 9.86 µM in the assay on TK-10 renal; 13.7 µM in the assay on KM12 colon; 24.6 µM in the assay on SK-OV-3 ovarian. For the same compound, the TGI was 12.8 µM in the assay with HT29 colon, 38.4 µM with K-562 leukemia and 6.9 µM in the assay with UACC-62 melanoma.

Take `CC(C)c1cc(C(C)C)c(S(=O)(=O)NN)c(C(C)C)c1`: the TGI in the assay on RPMI-8226 leukemia, in the assay on SN12C renal, with HOP-62 NSCLC, with TK-10 renal, in the assay with KM12 colon and with EKVX NSCLC was more than 100 µM throughout. Also, the TGI with HT29 colon, with K-562 leukemia and in the assay on UACC-62 melanoma was more than 100 µM each time.

`COc1ccc(Nc2c3ccccc3nc3c2c2ccccc2n3C)cc1`: the GI50 is 3.77 µM with RPMI-8226 leukemia; 58.6 µM in the assay on SN12C renal; more than 100 µM in the assay with HOP-62 NSCLC; 13 µM in the assay on TK-10 renal; 6.61 µM in the assay on KM12 colon; 7.91 µM in the assay on EKVX NSCLC. Moreover, the GI50 is 13.6 µM in the assay with HT29 colon, 5.57 µM in the assay on K-562 leukemia and 11.4 µM with UACC-62 melanoma. Further, the TGI with RPMI-8226 leukemia was 24.7 µM; with SN12C renal, more than 100 µM; in the assay with HOP-62 NSCLC, more than 100 µM; with TK-10 renal, more than 100 µM; in the assay on KM12 colon it was 53.3 µM; in the assay with EKVX NSCLC it was 60.3 µM. In addition, the results for the TGI with HT29 colon, in the assay on K-562 leukemia and with UACC-62 melanoma were more than 100 µM, more than 100 µM and 41.5 µM, respectively.

For the compound `COc1ccc(/C=C2\N=C(c3ccccc3)OC2=O)c(OCc2ccccc2)c1`, the TGI in the assay on RPMI-8226 leukemia was more than 100 µM; in the assay on SN12C renal, more than 100 µM; with HOP-62 NSCLC, 45.2 µM; with KM12 colon it was more than 100 µM; in the assay with EKVX NSCLC, more than 100 µM; in the assay on K-562 leukemia it was more than 100 µM. The compound also gave a TGI in the assay on UACC-62 melanoma of 50 µM.

As for `NC(=S)N/N=C(/CC(=O)c1ccc([N+](=O)[O-])cc1)C(=O)Nc1ncc([N+](=O)[O-])s1`, the TGI in the assay on RPMI-8226 leukemia, in the assay with SN12C renal, in the assay with HOP-62 NSCLC, in the assay on TK-10 renal, in the assay on KM12 colon and in the assay on EKVX NSCLC was more than 100 µM in each case. Further, the TGI with HT29 colon and in the assay on UACC-62 melanoma was more than 100 µM each time.

With `CCSC1(SCC)CCN(C=NC(C)(C)C)C1`, the TGI in the assay on SN12C renal, in the assay with HOP-62 NSCLC, with TK-10 renal, with KM12 colon, with EKVX NSCLC and with SK-OV-3 ovarian was more than 100 µM in each case. In addition, the TGI in the assay with HT29 colon, in the assay on K-562 leukemia and in the assay on UACC-62 melanoma was more than 100 µM in each case.

`CN(C)CCNC(=O)c1cccc2nc3ccc4ccccc4c3nc12`: the TGI with SN12C renal came to 0.342 µM; in the assay on HOP-62 NSCLC, 0.352 µM; with TK-10 renal, 0.574 µM; with KM12 colon, 0.876 µM; in the assay with EKVX NSCLC, 0.468 µM; in the assay on SK-OV-3 ovarian, 2.06 µM. Also, the TGI in the assay with HT29 colon came out at 1.25 µM; in the assay with K-562 leukemia it was 25.6 µM; with UACC-62 melanoma, 0.256 µM.

As for `C/C(=N/O)C1CC=C(S(=O)(=O)c2ccccc2)C1` (centres undefined), the TGI in the assay with RPMI-8226 leukemia, in the assay with SN12C renal, in the assay with HOP-62 NSCLC, in the assay with TK-10 renal, with KM12 colon and in the assay with SK-OV-3 ovarian was more than 100 µM each time. Further, the TGI in the assay with HT29 colon and in the assay on K-562 leukemia was more than 100 µM in each case.

`CC(=O)CC(=O)CCCC(=O)Nc1ccc(Cl)cc1C`: the TGI in the assay on RPMI-8226 leukemia, with SN12C renal, in the assay with TK-10 renal, in the assay with KM12 colon, with EKVX NSCLC and in the assay with SK-OV-3 ovarian was more than 100 µM in each case. Also, the TGI in the assay on HT29 colon, in the assay on K-562 leukemia and in the assay with UACC-62 melanoma was more than 100 µM in each case.

As for `CCC(=O)C1=C(OC(C)=O)C2Cc3c(n(C)c4ccccc34)C(C1)N2C` (centres undefined), the TGI is 61.5 µM in the assay with SN12C renal; more than 100 µM with TK-10 renal; more than 100 µM in the assay with KM12 colon; more than 100 µM in the assay on EKVX NSCLC; more than 100 µM in the assay on SK-OV-3 ovarian; more than 100 µM in the assay on HT29 colon. For the same compound, the TGI in the assay with K-562 leukemia and in the assay on UACC-62 melanoma was more than 100 µM each time.

For the compound `O=[N+]([O-])c1cccc(C2SCc3nc4ccccc4n32)c1` (centres undefined), the TGI in the assay with SN12C renal, in the assay on HOP-62 NSCLC, in the assay on TK-10 renal, with KM12 colon, in the assay on EKVX NSCLC and in the assay with SK-OV-3 ovarian was more than 100 µM each time. In addition, the TGI in the assay with HT29 colon, in the assay with K-562 leukemia and in the assay on UACC-62 melanoma was more than 100 µM each time.

Source of the values: PubChem BioAssay (NCI).
